How the values were obtained:
EED (1-441)-His protein = EED (1-441)-His protein (Homo sapiens (Human), UniProt O75530); assay: EED-H3K27Me3 peptide competition binding assay by AlphaScreen; conditions: read-out: (a) IC50 EED Alphascreen binding Qualified
Excerpt: EED-H3K27Me3 peptide competition binding assay by AlphaScreen (α-screen)

[1] = target: wild type PRC2 (wtPRC2) complex (Homo sapiens (Human), UniProt O75530); assay: EED LC-MS assay; type: biochemical; conditions: read-out: (b) IC50 EED LC-MS Qualified
Chain of wild type PRC2 (wtPRC2) complex (O75530 whole entry): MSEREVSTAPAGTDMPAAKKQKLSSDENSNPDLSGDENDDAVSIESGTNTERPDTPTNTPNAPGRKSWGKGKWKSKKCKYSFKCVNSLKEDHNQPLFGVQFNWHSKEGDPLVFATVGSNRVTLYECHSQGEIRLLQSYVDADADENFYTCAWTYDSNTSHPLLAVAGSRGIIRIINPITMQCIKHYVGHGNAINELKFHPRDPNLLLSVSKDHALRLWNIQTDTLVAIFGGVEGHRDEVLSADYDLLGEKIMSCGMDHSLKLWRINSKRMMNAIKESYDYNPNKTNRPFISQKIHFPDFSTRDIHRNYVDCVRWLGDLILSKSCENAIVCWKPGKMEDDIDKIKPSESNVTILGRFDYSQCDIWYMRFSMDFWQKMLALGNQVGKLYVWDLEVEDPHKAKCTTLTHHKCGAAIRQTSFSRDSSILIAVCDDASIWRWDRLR
Chain of wild type PRC2 (wtPRC2) complex (Q15910 whole entry partner): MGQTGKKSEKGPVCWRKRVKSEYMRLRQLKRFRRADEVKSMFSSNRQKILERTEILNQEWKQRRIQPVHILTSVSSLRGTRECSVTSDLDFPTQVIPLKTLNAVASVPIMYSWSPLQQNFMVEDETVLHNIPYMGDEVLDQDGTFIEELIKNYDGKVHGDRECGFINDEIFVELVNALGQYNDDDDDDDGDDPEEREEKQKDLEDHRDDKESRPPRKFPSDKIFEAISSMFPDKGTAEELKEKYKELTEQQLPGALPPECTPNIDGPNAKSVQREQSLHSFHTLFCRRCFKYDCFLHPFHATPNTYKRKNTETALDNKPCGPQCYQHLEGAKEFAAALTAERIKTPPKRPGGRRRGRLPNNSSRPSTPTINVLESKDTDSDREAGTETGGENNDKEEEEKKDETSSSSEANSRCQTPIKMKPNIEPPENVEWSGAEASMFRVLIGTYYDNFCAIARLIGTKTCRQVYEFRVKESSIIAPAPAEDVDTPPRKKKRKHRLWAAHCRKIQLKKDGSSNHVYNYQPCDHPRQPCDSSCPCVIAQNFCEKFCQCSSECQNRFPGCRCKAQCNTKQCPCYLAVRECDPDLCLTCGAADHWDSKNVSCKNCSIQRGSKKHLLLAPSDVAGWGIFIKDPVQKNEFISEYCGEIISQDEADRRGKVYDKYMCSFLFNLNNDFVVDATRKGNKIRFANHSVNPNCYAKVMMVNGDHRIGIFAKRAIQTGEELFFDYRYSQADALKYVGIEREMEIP
Chain of wild type PRC2 (wtPRC2) complex (Q15022 whole entry partner): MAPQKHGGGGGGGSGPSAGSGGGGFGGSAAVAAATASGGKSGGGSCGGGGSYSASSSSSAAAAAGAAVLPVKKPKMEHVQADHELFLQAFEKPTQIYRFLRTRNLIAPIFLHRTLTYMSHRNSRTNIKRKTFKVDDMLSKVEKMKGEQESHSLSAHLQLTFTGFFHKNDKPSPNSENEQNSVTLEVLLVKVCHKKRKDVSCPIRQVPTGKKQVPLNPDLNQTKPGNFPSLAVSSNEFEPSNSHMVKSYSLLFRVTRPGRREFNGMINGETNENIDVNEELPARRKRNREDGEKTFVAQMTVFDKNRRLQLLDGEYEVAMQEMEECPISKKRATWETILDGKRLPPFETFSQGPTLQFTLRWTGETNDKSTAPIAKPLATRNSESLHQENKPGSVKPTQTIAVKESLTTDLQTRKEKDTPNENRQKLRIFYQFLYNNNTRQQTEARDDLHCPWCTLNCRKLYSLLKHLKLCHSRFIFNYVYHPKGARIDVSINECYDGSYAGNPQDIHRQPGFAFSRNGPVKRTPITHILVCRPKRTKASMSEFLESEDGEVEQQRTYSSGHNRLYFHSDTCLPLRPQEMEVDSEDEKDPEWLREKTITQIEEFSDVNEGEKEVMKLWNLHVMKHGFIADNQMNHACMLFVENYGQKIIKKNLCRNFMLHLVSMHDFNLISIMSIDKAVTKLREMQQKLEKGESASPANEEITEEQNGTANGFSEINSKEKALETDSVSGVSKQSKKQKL
Experimental: A 6 μL solution of 3 μM of the peptide substrate H3K27Me0 (histone H3[21-44]-biotin) in reaction buffer was added to initiate each reaction. […] ELISA (H3K27 Methylation) Assay

Chain of EED (1-441)-His protein (O75530 whole entry): as the sequence (O75530 whole entry) above

SMILES	IC50 (EED (1-441)-His protein) [nM]	IC50 [1] [nM]
OCCOc1ccc(-c2cnc(NCc3cccc4c3CCO4)n3cnnc23)cc1 [Example 38, 2-(4-(5-(((2,3-dihydrobenzofuran-4-yl)methyl)amino)-[1,2,4]triazolo[4,3-c]pyrimidin-8-yl)phenoxy)ethanol]	24.2	34.9
CN(C)Cc1ccc(-c2cnc(NCc3cccc4c3CCO4)n3cnnc23)cc1 [Example 11, N-((2,3-dihydrobenzofuran-4-yl)methyl)-8-(4-((dimethylamino)methyl)phenyl)-[1,2,4]triazolo[4,3-c]pyrimidin-5-amine]	6.9	20
CS(=O)(=O)CCOc1ccc(-c2cnc(NCc3cccc4c3CCO4)n3cnnc23)cc1 [Example 75, N-((2,3-dihydrobenzofuran-4-yl)methyl)-8-(4-(2-(methylsulfonyl)ethoxy)phenyl)-[1,2,4]triazolo[4,3-c]pyrimidin-5-amine]	34	37.5
Cc1nn(C)c(C)c1-c1cnc(NCc2cccc3c2CCO3)n2cnnc12 [Example 24, N-((2,3-dihydrobenzofuran-4-yl)methyl)-8-(1,3,5-trimethyl-1H-pyrazol-4-yl)-[1,2,4]triazolo[4,3-c]pyrimidin-5-amine]	30.4	37
Fc1ccccc1-c1cnc(NCc2cccc3c2CCO3)n2cnnc12 [Example 31, N-((2,3-dihydrobenzofuran-4-yl)methyl)-8-(2-fluorophenyl)-[1,2,4]triazolo[4,3-c]pyrimidin-5-amine]	30.2	21.5
Fc1ccc2c(c1CNc1ncc(-c3ccc(N4CCOCC4)nc3)c3nncn13)CCO2 [Example 92, N-((5-fluoro-2,3-dihydrobenzofuran-4-yl)methyl)-8-(6-morpholinopyridin-3-yl)-[1,2,4]triazolo[4,3-c]pyrimidin-5-amine]	19.2	51.5
Cc1cc(-c2cnc(NCc3cccc4c3CCO4)n3cnnc23)ccc1C(=O)N(C)C [Example 49, 4-(5-(((2,3-dihydrobenzofuran-4-yl)methyl)amino)-[1,2,4]triazolo[4,3-c]pyrimidin-8-yl)-N,N,2-trimethylbenzamide]	12.5	12.8
Cn1cc(-c2cnc(NCc3cccc4c3CCO4)n3cnnc23)cn1 [Example 25, N-((2,3-dihydrobenzofuran-4-yl)methyl)-8-(1-methyl-1H-pyrazol-4-yl)-[1,2,4]triazolo[4,3-c]pyrimidin-5-amine]	30.7	44.9
CCOc1ccc(-c2cnc(NCc3cccc4c3CCO4)n3cnnc23)cn1 [Example 63, N-((2,3-dihydrobenzofuran-4-yl)methyl)-8-(6-ethoxypyridin-3-yl)-[1,2,4]triazolo[4,3-c]pyrimidin-5-amine]	75.6	68.6
Nc1ccc(-c2cnc(NCc3cccc4c3CCO4)n3cnnc23)cn1 [Example 48, 8-(6-aminopyridin-3-yl)-N-((2,3-dihydrobenzofuran-4-yl)methyl)-[1,2,4]triazolo[4,3-c]pyrimidin-5-amine]	12.9	30.2
COCc1ncc(-c2cnc(NCc3cccc4c3CCO4)n3cnnc23)cc1C [Example 83, N-((2,3-dihydrobenzofuran-4-yl)methyl)-8-(6-(methoxymethyl)-5-methylpyridin-3-yl)-[1,2,4]triazolo[4,3-c]pyrimidin-5-amine]	10.5	22.8
Cc1ncc(-c2cnc(NCc3c(F)ccc4c3CCO4)n3cnnc23)c(C)n1 [Example 3, 8-(2,4-Dimethylpyrimidin-5-yl)-N-((5-fluoro-2,3-dihydrobenzofuran-4-yl)methyl)-[1,2,4]triazolo[4,3-c]pyrimidin-5-amine]	3.8	6.4
Fc1ccncc1-c1cnc(NCc2c(F)ccc3c2CCO3)n2cnnc12 [Example 47, N-((5-fluoro-2,3-dihydrobenzofuran-4-yl)methyl)-8-(4-fluoropyridin-3-yl)-[1,2,4]triazolo[4,3-c]pyrimidin-5-amine]	5.2	4.9

The remaining lines, values ahead:

IC50 (EED (1-441)-His protein) [nM]	IC50 [1] [nM]	SMILES
5	13.7	Cc1cc(C(=O)N2CCCC2)ncc1-c1cnc(NCc2c(F)ccc3c2CCO3)n2cnnc12 [Example 130, (5-(5-(((5-fluoro-2,3-dihydrobenzofuran-4-yl)methyl)amino)-[1,2,4]triazolo[4,3-c]pyrimidin-8-yl)-4-methylpyridin-2-yl)(pyrrolidin-1-yl)methanone]
14.1	21.6	CN1CCC(S(=O)(=O)c2ccc(-c3cnc(NCc4cccc5occc45)n4cnnc34)cc2)CC1 [Example 220, N-(benzofuran-4-ylmethyl)-8-(4-((1-methylpiperidin-4-yl)sulfonyl)phenyl)-[1,2,4]triazolo[4,3-c]pyrimidin-5-amine]
5	10.3	COCCn1nc(C)c(-c2cnc(NCc3c(F)ccc4c3CCO4)n3cnnc23)c1C [Example 159, N-((5-fluoro-2,3-dihydrobenzofuran-4-yl)methyl)-8-(1-(2-methoxyethyl)-3,5-dimethyl-1H-pyrazol-4-yl)-[1,2,4]triazolo[4,3-c]pyrimidin-5-amine]
10	15.4	Fc1ccc2c(c1CNc1ncc(-c3cnccc3Cl)c3nncn13)CCO2 [Example 124, 8-(4-chloropyridin-3-yl)-N-((5-fluoro-2,3-dihydrobenzofuran-4-yl)methyl)-[1,2,4]triazolo[4,3-c]pyrimidin-5-amine]
4.7	14.4	Cc1ncn(-c2cnc(NCc3c(F)ccc4c3CCO4)n3cnnc23)n1 [Example 238, N-((5-fluoro-2,3-dihydrobenzofuran-4-yl)methyl)-8-(3-methyl-1H-1,2,4-triazol-1-yl)-[1,2,4]triazolo[4,3-c]pyrimidin-5-amine]
16.9	33.7	c1cc(CNc2ncc(-c3cnn(C4CC4)c3)c3nncn23)c2c(c1)OCC2 [Example 149, 8-(1-cyclopropyl-1H-pyrazol-4-yl)-N-((2,3-dihydrobenzofuran-4-yl)methyl)-[1,2,4]triazolo[4,3-c]pyrimidin-5-amine]
26.9	32.6	Cc1cc(-c2cnc(NCc3cccc4c3CCO4)n3cnnc23)cnc1N1CCNC(=O)C1 [Example 105, 4-(5-(5-(((2,3-dihydrobenzofuran-4-yl)methyl)amino)-[1,2,4]triazolo[4,3-c]pyrimidin-8-yl)-3-methylpyridin-2-yl)piperazin-2-one]
67.2	223	Cc1ncc(-c2cnc(NCc3c(F)ccc4c3CCO4)n3cnnc23)n1C [Example 245, 8-(1,2-dimethyl-1H-imidazol-5-yl)-N-((5-fluoro-2,3-dihydrobenzofuran-4-yl)methyl)-[1,2,4]triazolo[4,3-c]pyrimidin-5-amine]
2.3	3.8	Cc1c(-c2cnc(NCc3c(F)ccc4c3CCO4)n3cnnc23)cnn1C(C)C [Example 188, N-((5-fluoro-2,3-dihydrobenzofuran-4-yl)methyl)-8-(1-isopropyl-5-methyl-1H-pyrazol-4-yl)-[1,2,4]triazolo[4,3-c]pyrimidin-5-amine]
36.6	25.6	c1cncc(-c2cnc(NCc3cccc4occc34)n3cnnc23)c1 [Example 213, N-(benzofuran-4-ylmethyl)-8-(pyridin-3-yl)-[1,2,4]triazolo[4,3-c]pyrimidin-5-amine]
12.3	23.4	Cc1ncccc1-c1cnc(NCc2cccc3c2CCO3)n2cnnc12 [Example 123, N-((2,3-dihydrobenzofuran-4-yl)methyl)-8-(2-methylpyridin-3-yl)-[1,2,4]triazolo[4,3-c]pyrimidin-5-amine]
12.4	16.1	Cc1nn(C2CC2)c(C)c1-c1cnc(NCc2c(F)ccc3c2CCO3)n2cnnc12 [Example 179, 8-(1-cyclopropyl-3,5-dimethyl-1H-pyrazol-4-yl)-N-((5-fluoro-2,3-dihydrobenzofuran-4-yl)methyl)-[1,2,4]triazolo[4,3-c]pyrimidin-5-amine]
4.5	17.1	Cc1nn(CCO)cc1-c1cnc(NCc2c(F)ccc3c2CCO3)n2cnnc12 [Example 190, 2-(4-(5-(((5-fluoro-2,3-dihydrobenzofuran-4-yl)methyl)amino)-[1,2,4]triazolo[4,3-c]pyrimidin-8-yl)-3-methyl-1H-pyrazol-1-yl)ethanol]
4.6	11.2	Fc1ccc2c(c1CNc1ncc(-c3cccnc3C(F)F)c3nncn13)CCO2 [Example 168, 8-(2-(difluoromethyl)pyridin-3-yl)-N-((5-fluoro-2,3-dihydrobenzofuran-4-yl)methyl)-[1,2,4]triazolo[4,3-c]pyrimidin-5-amine]
8.8	13.7	O=C1CN(CCc2ccc(-c3cnc(NCc4cccc5c4CCO5)n4cnnc34)cn2)CCN1 [Example 109, 4-(2-(5-(5-(((2,3-dihydrobenzofuran-4-yl)methyl)amino)-[1,2,4]triazolo[4,3-c]pyrimidin-8-yl)pyridin-2-yl)ethyl)piperazin-2-one]
4.4	17.3	Cc1cnc(C(F)F)cc1-c1cnc(NCc2c(F)ccc3c2CCO3)n2cnnc12 [Example 198, 8-(2-(difluoromethyl)-5-methylpyridin-4-yl)-N-((5-fluoro-2,3-dihydrobenzofuran-4-yl)methyl)-[1,2,4]triazolo[4,3-c]pyrimidin-5-amine]
132	183	O=C(c1ccc(-c2cnc(NCc3cccc4occc34)n3cnnc23)cc1)N1CCCC1 [Example 216, (4-(5-((benzofuran-4-ylmethyl)amino)-[1,2,4]triazolo[4,3-c]pyrimidin-8-yl)phenyl)(pyrrolidin-1-yl)methanone]
15.6	25.6	Fc1ccc2c(c1CNc1ncc(-c3ccnc(N4CCOCC4)c3)c3nncn13)CCO2 [Example 120, N-((5-fluoro-2,3-dihydrobenzofuran-4-yl)methyl)-8-(2-morpholinopyridin-4-yl)-[1,2,4]triazolo[4,3-c]pyrimidin-5-amine]

Reference: patent publication US9580437B2, “Triazolopyrimidine compounds and uses thereof” (Novartis AG, priority 2014, dated 2017)
